Laboratory results as given in patent publication US12371454B2, “Cyclic peptide compound having Kras inhibitory action” (priority 2019, dated 2025).
pIC50: −log10 of the molar value. Starred links: 1 amine or outer side, 2 acyl side, 3 side chain; linkers in the order of their positions; H or OH if unused. Positions of bridges follow the written chain, without caps; N, C: chain ends. Non-standard residues stand in square brackets, D forms with d. Residues, ends and D or L forms follow the SMILES beside them. *: point of attachment. hPhe(3-Cl-4-CF3) = N[C@@H](CCc1ccc(C(F)(F)F)c(Cl)c1)C(=O)O; NMePhe(4-CF3) = CN[C@@H](Cc1ccc(C(F)(F)F)cc1)C(=O)O; hPhe(4-CF3) = N[C@@H](CCc1ccc(C(F)(F)F)cc1)C(=O)O; NMePhe(4-Cl) = CN[C@@H](Cc1ccc(Cl)cc1)C(=O)O; NMePhe(4-Me) = CN[C@@H](Cc1ccc(C)cc1)C(=O)O; NMePhe(2-Cl) = CN[C@@H](Cc1ccccc1Cl)C(=O)O; NMedβ3hAla = C[C@H](CC(=O)[*:2])N(C)[*:1]; hNle(7,7-F2) = N[C@@H](CCCCC(F)F)C(=O)O; NMeGly(cPent) = CN[C@H](C(=O)O)C1CCCC1; Pro(4,4-F2) = O=C(O)[C@@H]1CC(F)(F)CN1; NMe3Pal = CN[C@@H](Cc1cccnc1)C(=O)O; NMeCha = CN[C@@H](CC1CCCCC1)C(=O)O; NMeChg = CN[C@H](C(=O)O)C1CCCCC1; NMeF = CN[C@@H](Cc1ccccc1)C(=O)O; NMeI = CC[C@H](C)[C@H](NC)C(=O)O; NMeD = CN[C@@H](CC(=O)O)C(=O)O; NMeL = CN[C@@H](CC(C)C)C(=O)O; NMeV = CN[C@H](C(=O)O)C(C)C; d(β3hA) = C[C@@H](N)CC(=O)O; NMeA = CN[C@@H](C)C(=O)O; NMeAib = CNC(C)(C)C(=O)O; Piperidide = C1CCN(*)CC1; Ac5c = NC1(C(=O)O)CCCC1; Aze = O=C(O)[C@@H]1CCN1; Ac4c = NC1(C(=O)O)CCC1; Sar = CNCC(=O)O

The molecules below were run against T1, Kras and SOS1 (biotin-tagged human Kras loaded with GDP, His-tagged human SOS1) (Homo sapiens, UniProt P01116, G12D) (assay: Protein-protein interaction inhibition between Kras and SOS1 (KrasGl2D-SOS PPI) using AlphaScreen). Details: AlphaScreen; biotin-tagged human Kras loaded with GDP, His-tagged human SOS1; read-out: KRAS G12D-SOS PPI IC50.
T1 construct: made in house; host or cells: E. coli (stated for Kras only)
T1 sequence (P01116 1-188 isoform P01116-2 G12D): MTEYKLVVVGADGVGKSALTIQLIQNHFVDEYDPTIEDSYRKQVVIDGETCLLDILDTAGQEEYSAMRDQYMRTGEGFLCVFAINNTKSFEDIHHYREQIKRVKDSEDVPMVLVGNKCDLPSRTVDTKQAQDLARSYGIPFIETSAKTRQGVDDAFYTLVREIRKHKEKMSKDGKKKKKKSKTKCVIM
Format: binding
Description: Protein-Protein Interaction Inhibition Between Kras and SOS1 (KrasGl2D-SOS PPI) Using AlphaScreen
Protein-protein interaction inhibition (PPI) between Kras and SOS1 was measured by energy transfer from nickel-conjugated donor beads to streptavidin-conjugated acceptor beads using biotin-tagged human Kras expressed in E. coli and loaded with GDP after purification and His-tagged human SOS1 enzyme. This measurement utilizes the phenomenon in which donor beads are irradiated with light at 680 nm, such that energy is transferred to acceptor beads through singlet oxygen and light at 520-620 nm is detected from the acceptor beads.
Inhibition of binding between K-ras and SOS1 is known to inhibit signaling downstream of Kras.

In order of falling pIC50:
1. CC[C@H](C)[C@@H]1NC(=O)[C@H](CC(C)C)N(C)C(=O)C[C@@H](C(=O)N2CCCCC2)N(C)C(=O)[C@H](C2CCCCC2)N(C)C(=O)C2(CCCC2)NC(=O)[C@H](Cc2cccnc2)N(C)C(=O)[C@H](CCc2ccc(C(F)(F)F)c(Cl)c2)NC(=O)CN(C)C(=O)[C@H](CC2CCCCC2)N(C)C(=O)CN(C)C(=O)CN(C)C1=O [Compound 63] ([NMeL]I[Sar][Sar][NMeCha][Sar][hPhe(3-Cl-4-CF3)][NMe3Pal][Ac5c][NMeChg][NMeD]-Piperidide; lactam N-11)  8.43
2. CC[C@H](C)[C@@H]1NC(=O)[C@H](CC(C)C)N(C)C(=O)C[C@@H](C)N(C)C(=O)[C@H](C2CCCC2)N(C)C(=O)C2(CCC2)NC(=O)[C@@H]2CC(F)(F)CN2C(=O)[C@H](CCc2ccc(C(F)(F)F)c(Cl)c2)NC(=O)CN(C)C(=O)[C@H](Cc2ccc(C(F)(F)F)cc2)N(C)C(=O)CN(C)C(=O)CN(C)C1=O [Compound 62] (cyclo([Ac4c][NMeGly(cPent)][NMedβ3hAla][NMeL]I[Sar][Sar][NMePhe(4-CF3)][Sar][hPhe(3-Cl-4-CF3)][Pro(4,4-F2)]))  8.42
3. CC(C)C[C@H]1C(=O)N[C@@H](CCCCC(F)F)C(=O)N(C)CC(=O)N(C)CC(=O)N(C)[C@@H](CC2CCCCC2)C(=O)N(C)CC(=O)N[C@@H](CCc2ccc(C(F)(F)F)c(Cl)c2)C(=O)N2CCC[C@H]2C(=O)NC2(CCCC2)C(=O)N(C)[C@@H](C2CCCCC2)C(=O)N(C)[C@H](C(=O)N2CCCCC2)CC(=O)N1C [Compound 92] ([NMeL][hNle(7,7-F2)][Sar][Sar][NMeCha][Sar][hPhe(3-Cl-4-CF3)]P[Ac5c][NMeChg][NMeD]-Piperidide; lactam N-11)  8.26
4. CC[C@H](C)[C@@H]1NC(=O)[C@H](C)N(C)C(=O)C[C@@H](C)NC(=O)[C@H](C(C)C)N(C)C(=O)C(C)(C)N(C)C(=O)[C@@H]2CCCN2C(=O)[C@H](CCc2ccc(C(F)(F)F)c(Cl)c2)NC(=O)CN(C)C(=O)[C@H](CC2CCCCC2)N(C)C(=O)CN(C)C(=O)CN(C)C1=O [Compound 93] (cyclo(I[Sar][Sar][NMeCha][Sar][hPhe(3-Cl-4-CF3)]P[NMeAib][NMeV][d(β3hA)][NMeA]))  8.16
5. CC[C@H](C)[C@@H]1NC(=O)[C@H](CC(C)C)N(C)C(=O)C[C@@H](C(=O)N(C)C)N(C)C(=O)[C@H]([C@@H](C)CC)N(C)C(=O)C2(CCCC2)NC(=O)[C@@H](C)NC(=O)[C@H](CCc2ccc(C(F)(F)F)c(Cl)c2)NC(=O)CN(C)C(=O)[C@H](Cc2ccc(C)cc2)N(C)C(=O)[C@@H]2CCN2C(=O)[C@H](C)N(C)C1=O [Compound 67] ([NMeL]I[NMeA][Aze][NMePhe(4-Me)][Sar][hPhe(3-Cl-4-CF3)][dA][Ac5c][NMeI][NMeD]-NMe2; lactam N-11)  8.08
6. CC[C@H](C)[C@@H]1NC(=O)[C@H](C)N(C)C(=O)C[C@@H](C)NC(=O)[C@H](C(C)C)N(C)C(=O)C2(CCCC2)NC(=O)[C@@H]2CCCN2C(=O)[C@H](CCc2ccc(C(F)(F)F)c(Cl)c2)NC(=O)[C@H]2CCCN2C(=O)[C@H](CC2CCCCC2)N(C)C(=O)[C@@H]2CCN2C(=O)CN(C)C1=O [Compound 77] (cyclo([Ac5c][NMeV][d(β3hA)][NMeA]I[Sar][Aze][NMeCha][dP][hPhe(3-Cl-4-CF3)]P))  7.00
7. CC[C@H](C)[C@@H]1NC(=O)[C@H](C)N(C)C(=O)C[C@@H](C)NC(=O)[C@H](C2CCCC2)N(C)C(=O)C2(CCCC2)NC(=O)[C@@H]2CCCN2C(=O)[C@H](CCc2ccc(C(F)(F)F)c(Cl)c2)NC(=O)CN(C)C(=O)[C@H](Cc2ccccc2Cl)N(C)C(=O)[C@@H]2CCCN2C(=O)CN(C)C1=O [Compound 82] (cyclo([Ac5c][NMeGly(cPent)][d(β3hA)][NMeA]I[Sar]P[NMePhe(2-Cl)][Sar][hPhe(3-Cl-4-CF3)]P))  6.85
8. CC[C@H](C)[C@@H]1NC(=O)[C@H](C)N(C)C(=O)C[C@@H](C)NC(=O)[C@H](C(C)C)N(C)C(=O)[C@H](Cc2ccccc2)N(C)C(=O)[C@H](CC(C)C)N(C)C(=O)[C@H](CCc2ccc(C(F)(F)F)cc2)NC(=O)CN(C)C(=O)[C@H](Cc2ccc(Cl)cc2)N(C)C(=O)CN(C)C(=O)[C@@H]2CCN2C1=O [Compound 71] (cyclo([Aze][Sar][NMePhe(4-Cl)][Sar][hPhe(4-CF3)][NMeL][NMeF][NMeV][d(β3hA)][NMeA]I))  6.82
9. CC[C@H](C)[C@@H]1NC(=O)[C@H](CC(C)C)N(C)C(=O)C[C@@H](C)NC(=O)[C@H](C(C)C)N(C)C(=O)C2(CCCC2)NC(=O)[C@@H]2CCCN2C(=O)[C@H](CCc2ccc(C(F)(F)F)c(Cl)c2)NC(=O)[C@H]2CCCN2C(=O)[C@H](CC2CCCCC2)N(C)C(=O)CN(C)C(=O)CN(C)C1=O [Compound 76] (cyclo([Ac5c][NMeV][d(β3hA)][NMeL]I[Sar][Sar][NMeCha][dP][hPhe(3-Cl-4-CF3)]P))  6.72
